Laboratory results: US9024021B2, “Diarylacetylene hydrazide containing tyrosine kinase inhibitors” (Sun Pharma Advanced Research Company Ltd., priority 2011, dated 2015)

Tests used:
[1] = target: T1, Abl (Y253F) (human) (Homo sapiens, UniProt P00519, Y253F); assay: Mutated Abl kinase inhibition (in vitro), Y253F; type: biochemical; conditions: 100 nM
T1 construct: purchased Millipore Pharma Services (contract assay, UK pharmacology laboratory)
Experimental: (§1) The kinase assays were performed by Millipore Pharma Services at their UK pharmacology laboratory.
(§2) In a final reaction volume of 25 μL, Abl (human) (5-10 mU) is incubated with 8 mM MOPS pH7.0, 0.2 mM EDTA, 50 μM […], 10 mM Mg(OAc)2 and [γ-^33P-ATP] [specific activity approx. 500 cpm/pmol, concentration as required). The reaction is initiated by the addition of the MgATP mix. After incubation for 40 minutes at room temperature, the reaction is stopped by the addition of 5 μL of a 3% phosphoric acid solution. 10 μL of the reaction is then spotted onto a P30 filtermat and washed three times for 5 minutes in 75 mM phosphoric acid and once in methanol prior to drying and scintillation counting.
(§3) The procedure remains exactly the same as described earlier for Abl kinase, the Abl (human) kinase being replaced by mutated Abl (Q252H) (human), Abl (Y253F) (human), Abl (T315I) (human), Abl (M351T) (human) and Abl (H396P) (human) kinases.
(§4) Within each kinase assay, percent of control values were calculated for each test compound raw data point based on mean minimum (0%) and maximum (100%) controls (n=4 per control) for that kinase (sample−mean minimum/mean maximum−mean minimum×100%). Percent inhibition was calculated from these values (100−mean percent of control).

[2] = target: T2, Lyn (human) (Homo sapiens, UniProt P07948); assay: Lyn kinase inhibition (in vitro); type: biochemical; conditions: read-out: % Inhibition at 100 nM Lyn
T2 construct: purchased Millipore Pharma Services (contract assay, UK pharmacology laboratory)
T2 sequence (P07948 whole entry): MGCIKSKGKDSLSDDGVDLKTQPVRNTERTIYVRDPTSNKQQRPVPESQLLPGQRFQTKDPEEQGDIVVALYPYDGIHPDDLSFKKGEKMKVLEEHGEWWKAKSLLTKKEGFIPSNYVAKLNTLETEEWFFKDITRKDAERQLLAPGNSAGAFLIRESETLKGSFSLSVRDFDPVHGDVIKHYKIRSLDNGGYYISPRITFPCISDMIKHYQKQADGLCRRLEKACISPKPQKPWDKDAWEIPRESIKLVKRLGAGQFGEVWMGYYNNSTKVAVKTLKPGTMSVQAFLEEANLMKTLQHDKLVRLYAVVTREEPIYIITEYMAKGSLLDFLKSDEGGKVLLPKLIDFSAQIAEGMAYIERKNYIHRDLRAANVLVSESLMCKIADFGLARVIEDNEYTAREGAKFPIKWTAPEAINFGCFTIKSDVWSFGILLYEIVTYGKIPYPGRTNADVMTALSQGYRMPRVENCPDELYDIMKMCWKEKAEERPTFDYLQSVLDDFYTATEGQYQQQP
Experimental: as §1
In a final reaction volume of 25 μL, Lyn (human) (5-10 mU) is incubated with 50 mM Tris pH 7.5, 0.1 mM EGTA, 0.1 mM Na3VO4, 0.1% β-mercaptoethanol, 0.1 mg/ml poly(Glu, tyr) 4:1, 10 mM Mg(OAc)2 and [γ-^33P-ATP] [specific activity approx. 500 cpm/pmol, concentration as required). The reaction is initiated by the addition of the MgATP mix. After incubation for 40 minutes at room temperature, the reaction is stopped by the addition of 5 μL of a 3% phosphoric acid solution. 10 μL of the reaction is then spotted onto a filtermat A and washed three times for 5 minutes in 75 mM phosphoric acid and once in methanol prior to drying and scintillation counting.
as §4

[3] = target: T3, Abl (Q252H) (human) (Homo sapiens, UniProt P00519, Q252H); assay: Mutated Abl kinase inhibition (in vitro), Q252H; type: biochemical; conditions: 100 nM
T3 construct: purchased Millipore Pharma Services (contract assay, UK pharmacology laboratory)
Experimental: as §1, §2, §3, §4

[4] = target: T4, Abl (H396P) (human) (Homo sapiens, UniProt P00519, H396P); assay: Mutated Abl kinase inhibition (in vitro), H396P; type: biochemical; conditions: 100 nM
T4 construct: purchased Millipore Pharma Services (contract assay, UK pharmacology laboratory)
Experimental: as §1, §2, §3, §4

[5] = target: T5, Lck (human) (Homo sapiens, UniProt P06239); assay: Lck kinase inhibition (in vitro); type: biochemical; conditions: read-out: % Inhibition at 100 nM Lck
T5 construct: purchased Millipore Pharma Services (contract assay, UK pharmacology laboratory)
T5 sequence (P06239 whole entry): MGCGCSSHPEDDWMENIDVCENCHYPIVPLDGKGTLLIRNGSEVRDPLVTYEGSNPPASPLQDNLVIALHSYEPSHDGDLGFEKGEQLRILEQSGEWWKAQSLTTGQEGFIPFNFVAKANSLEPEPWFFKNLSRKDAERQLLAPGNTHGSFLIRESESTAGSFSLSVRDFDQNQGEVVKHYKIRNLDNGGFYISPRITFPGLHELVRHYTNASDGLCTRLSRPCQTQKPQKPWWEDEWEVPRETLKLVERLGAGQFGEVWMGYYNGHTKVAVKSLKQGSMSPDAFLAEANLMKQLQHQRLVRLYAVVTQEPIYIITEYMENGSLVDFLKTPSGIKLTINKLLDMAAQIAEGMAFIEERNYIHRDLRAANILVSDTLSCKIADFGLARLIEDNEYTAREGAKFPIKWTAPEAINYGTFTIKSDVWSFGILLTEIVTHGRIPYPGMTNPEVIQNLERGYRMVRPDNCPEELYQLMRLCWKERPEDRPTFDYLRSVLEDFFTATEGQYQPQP
Experimental: as §1
In a final reaction volume of 25 μL, Lck (human) (5-10 mU) is incubated with 50 mM Tris pH 7.5, 0.1 mM EGTA, 0.1 mM Na3VO4, 250 μM […] [Cdc2 peptide), 10 mM Mg(OAc)2 and [γ-^33P-ATP] [specific activity approx. 500 cpm/pmol, concentration as required). The reaction is initiated by the addition of the MgATP mix. After incubation for 40 minutes at room temperature, the reaction is stopped by the addition of 5 μL of a 3% phosphoric acid solution. 10 μL of the reaction is then spotted onto a P30 filtermat and washed three times for 5 minutes in 75 mM phosphoric acid and once in methanol prior to drying and scintillation counting.
as §4

[6] = target: T6, Abl (M351T) (human) (Homo sapiens, UniProt P00519, M351T); assay: Mutated Abl kinase inhibition (in vitro), M351T; type: biochemical; conditions: 100 nM
T6 construct: purchased Millipore Pharma Services (contract assay, UK pharmacology laboratory)
Experimental: as §1, §2, §3, §4

[7] = system: K562 cells; assay: In-vitro cell proliferation assay (MTT), K562 cells; type: cell-based; conditions: Homo sapiens; for inhibition at 0.01 µM: 10 nM; for inhibition at 0.1 µM: 100 nM
Experimental: In-Vitro Cell Proliferation Assay
K562/U937 cells (2×10^4 per well) were incubated with the test compounds/vehicle in a total volume of 200 μL of media at 37° C. with 5% CO2. […] The cells were incubated overnight at 37° C. with 5% CO2. On Day 5 the optical density was measured at 570 nm with 630 nm as reference wavelength. The optical density in the vehicle treated wells was compared with that of the test compound treated wells.

[8] = target: T7, Abl (T315I) (human) (Homo sapiens, UniProt P00519, T315I); assay: Abl-T315I kinase inhibition (in vitro); type: biochemical; conditions: for inhibition at 0.1 µM: 100 nM; for inhibition at 1 µM: 1000 nM
T7 construct: purchased Millipore Pharma Services (contract assay, UK pharmacology laboratory)
Experimental: as §1
[specific activity approx. 500 cpm/pmol, concentration as required). The reaction is initiated by the addition of the MgATP mix. After incubation for 40 minutes at room temperature, the reaction is stopped by the addition of 5 μL of a 3% phosphoric acid solution. 10 μL of the reaction is then spotted onto a P30 filtermat and washed three times for 5 minutes in 75 mM phosphoric acid and once in methanol prior to drying and scintillation counting.
as §4

| SMILES | inhibition at 0.1 µM [1] [%] | inhibition at 0.1 µM [2] [%] | inhibition at 0.1 µM [3] [%] | inhibition at 0.1 µM [4] [%] | inhibition at 0.1 µM [5] [%] | inhibition at 0.1 µM [6] [%] | inhibition at 0.01 µM [7] [%] | inhibition at 0.1 µM [7] [%] | inhibition at 0.1 µM [8] [%] | inhibition at 1 µM [8] [%] |
| --- | --- | --- | --- | --- | --- | --- | --- | --- | --- | --- |
| Cc1ccc(C(=O)NNC(=O)c2c(C)cccc2Cl)cc1C#Cc1cnc2ccccc2c1 [I.2, N′-(2-Chloro-6-methylbenzoyl)-4-methyl-3-[2-(3-quinolyl)ethynyl]benzohydrazide] | 101 | 97 | 100 | 99 | 84 | 100 |  |  |  |  |
| Cc1ccc(C(=O)NNC(=O)c2c(C)cccc2I)cc1C#Cc1cnc2ccccc2c1 [I.4, N′-(2-Iodo-6-methylbenzoyl)-4-methyl-3-[2-(3-quinolyl)ethynyl]benzohydrazide] | 98 | 97 | 100 | 100 | 81 | 99 | 102 | 100 | 90 | 100 |
| Cc1ccc(C(=O)NNC(=O)c2c(C)cccc2Cl)cc1C#Cc1cnc2cccnn12 [I.16, N′-(2-Chloro-6-methylbenzoyl)-3-[2-(imidazo[1,2-b]pyridazin-3-yl)ethynyl]-4-methylbenzohydrazide] | 98 | 74 | 98 | 99 | 65 | 100 | 104 | 102 | 70 | 93 |
